Measured values from ChEMBL document CHEMBL1138371, “Discovery of low nanomolar non-hydroxamate inhibitors of tumor necrosis factor-alpha converting enzyme (TACE)” (Bioorg Med Chem Lett, 2007).

Key:
[1] = target: 72 kDa type IV collagenase (Homo sapiens, UniProt P08253); assay: Inhibition of MMP2
Matrilysin = target: T1, Matrilysin (Homo sapiens, UniProt P09237); assay: Inhibition of MMP7
T1 sequence (P09237 whole entry): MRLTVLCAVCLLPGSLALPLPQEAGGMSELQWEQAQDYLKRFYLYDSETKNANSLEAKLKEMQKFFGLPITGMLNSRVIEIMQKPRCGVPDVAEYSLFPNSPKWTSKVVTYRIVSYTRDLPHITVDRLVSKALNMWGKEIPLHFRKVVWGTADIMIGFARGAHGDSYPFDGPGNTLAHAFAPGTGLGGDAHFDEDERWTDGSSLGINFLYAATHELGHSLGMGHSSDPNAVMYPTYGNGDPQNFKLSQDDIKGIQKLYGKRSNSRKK

[2] = target: Macrophage metalloelastase (Homo sapiens, UniProt P39900); assay: Inhibition of MMP12
Macrophage metalloelastase, sequence (P39900 whole entry): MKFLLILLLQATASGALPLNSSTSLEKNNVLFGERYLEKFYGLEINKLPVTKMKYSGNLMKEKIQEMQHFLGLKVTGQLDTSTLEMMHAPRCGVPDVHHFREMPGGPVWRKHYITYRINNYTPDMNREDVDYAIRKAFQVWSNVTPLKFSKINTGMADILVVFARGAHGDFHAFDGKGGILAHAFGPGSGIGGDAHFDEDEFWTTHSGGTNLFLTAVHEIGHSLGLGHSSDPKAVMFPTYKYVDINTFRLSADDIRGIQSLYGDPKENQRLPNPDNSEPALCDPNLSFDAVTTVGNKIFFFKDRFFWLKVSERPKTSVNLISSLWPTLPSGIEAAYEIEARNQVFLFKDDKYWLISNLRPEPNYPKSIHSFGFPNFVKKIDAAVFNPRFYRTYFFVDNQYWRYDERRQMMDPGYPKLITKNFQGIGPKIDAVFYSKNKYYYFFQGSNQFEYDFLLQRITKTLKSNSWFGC

Homo sapiens = organism: Homo sapiens; assay: Inhibition of aggrecanase at 1 uM
[3] = target: Disintegrin and metalloproteinase domain-containing protein 17 (Sus scrofa, UniProt O77636); assay: Inhibition of porcine TACE
Disintegrin and metalloproteinase domain-containing protein 17, sequence (O77636 whole entry, the tested form may be a part): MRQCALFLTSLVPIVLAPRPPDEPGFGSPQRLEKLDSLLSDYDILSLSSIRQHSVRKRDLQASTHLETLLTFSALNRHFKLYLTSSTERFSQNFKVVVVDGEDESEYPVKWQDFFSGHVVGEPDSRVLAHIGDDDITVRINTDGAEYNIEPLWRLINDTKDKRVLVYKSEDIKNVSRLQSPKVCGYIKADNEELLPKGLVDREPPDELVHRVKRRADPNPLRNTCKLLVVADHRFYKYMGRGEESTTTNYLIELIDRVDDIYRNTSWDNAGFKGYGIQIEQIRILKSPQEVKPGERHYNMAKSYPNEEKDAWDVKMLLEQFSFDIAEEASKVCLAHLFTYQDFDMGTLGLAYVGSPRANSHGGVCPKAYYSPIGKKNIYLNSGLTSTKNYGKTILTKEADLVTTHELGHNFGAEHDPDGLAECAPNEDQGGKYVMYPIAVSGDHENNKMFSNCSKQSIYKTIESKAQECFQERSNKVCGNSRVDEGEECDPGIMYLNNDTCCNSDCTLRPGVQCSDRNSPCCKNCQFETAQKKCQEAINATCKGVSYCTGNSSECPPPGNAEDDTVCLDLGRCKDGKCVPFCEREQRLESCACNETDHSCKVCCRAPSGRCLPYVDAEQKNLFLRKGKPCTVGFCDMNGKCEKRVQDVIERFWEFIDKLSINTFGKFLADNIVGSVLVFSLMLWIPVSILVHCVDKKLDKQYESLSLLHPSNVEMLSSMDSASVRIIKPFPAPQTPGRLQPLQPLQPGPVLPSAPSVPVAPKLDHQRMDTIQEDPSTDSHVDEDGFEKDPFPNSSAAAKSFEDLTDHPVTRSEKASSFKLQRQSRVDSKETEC

Stromelysin-1 = Stromelysin-1 (Homo sapiens, UniProt P08254); assay: Inhibition of MMP3
Stromelysin-1, sequence (P08254 whole entry): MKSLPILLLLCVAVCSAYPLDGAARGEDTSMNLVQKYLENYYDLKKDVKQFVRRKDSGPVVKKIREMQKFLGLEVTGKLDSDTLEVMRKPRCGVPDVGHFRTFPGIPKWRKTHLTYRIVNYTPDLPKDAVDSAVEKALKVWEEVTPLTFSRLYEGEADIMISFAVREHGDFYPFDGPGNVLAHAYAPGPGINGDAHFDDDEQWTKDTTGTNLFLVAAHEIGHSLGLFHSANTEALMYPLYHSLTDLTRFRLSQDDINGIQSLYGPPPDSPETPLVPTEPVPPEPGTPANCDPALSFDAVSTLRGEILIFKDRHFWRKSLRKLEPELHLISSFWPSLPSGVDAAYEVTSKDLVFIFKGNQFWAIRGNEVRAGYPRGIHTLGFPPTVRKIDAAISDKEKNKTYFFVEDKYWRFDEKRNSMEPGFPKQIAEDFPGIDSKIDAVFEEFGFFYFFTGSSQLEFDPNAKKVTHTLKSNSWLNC

Blood = assay: Inhibition of LPS-stimulated TNFalpha production in human whole blood; assay type: functional, tissue-based
Collagenase 3 = Collagenase 3 (Homo sapiens, UniProt P45452); assay: Inhibition of MMP13

72 kDa type IV collagenase, sequence (P08253 whole entry): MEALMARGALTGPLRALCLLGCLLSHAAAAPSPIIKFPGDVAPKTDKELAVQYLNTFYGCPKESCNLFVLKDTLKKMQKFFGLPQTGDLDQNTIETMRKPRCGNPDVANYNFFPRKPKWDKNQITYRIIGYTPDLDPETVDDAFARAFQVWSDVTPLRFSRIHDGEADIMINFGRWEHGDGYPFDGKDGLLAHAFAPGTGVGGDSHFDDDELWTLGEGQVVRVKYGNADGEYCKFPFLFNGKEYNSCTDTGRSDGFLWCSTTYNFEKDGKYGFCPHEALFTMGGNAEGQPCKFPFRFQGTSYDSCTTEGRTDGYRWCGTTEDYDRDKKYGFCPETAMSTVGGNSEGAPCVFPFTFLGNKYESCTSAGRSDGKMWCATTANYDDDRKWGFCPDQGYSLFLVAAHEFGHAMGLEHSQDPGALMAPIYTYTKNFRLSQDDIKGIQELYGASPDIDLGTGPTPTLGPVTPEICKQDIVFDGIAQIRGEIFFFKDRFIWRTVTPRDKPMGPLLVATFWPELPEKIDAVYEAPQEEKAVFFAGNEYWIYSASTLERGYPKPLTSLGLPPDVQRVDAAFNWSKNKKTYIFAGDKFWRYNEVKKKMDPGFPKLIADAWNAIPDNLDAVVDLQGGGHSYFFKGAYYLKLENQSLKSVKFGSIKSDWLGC

Structure (SMILES) | Ki [1] [µM] | Ki (Matrilysin) [µM] | Ki [2] [µM] | inhibition (Homo sapiens) [%] | IC50 [3] [µM] | Ki (Stromelysin-1) [µM] | IC50 (Blood) [µM] | Ki (Collagenase 3) [µM]
Cc1cc(COc2ccc(C(=O)NCC3(N4CCN(C(C)C)CC4)C(=O)NC(=O)NC3=O)cc2)c2ccccc2n1 | > 3.33 | > 6.37 | > 6.02 | 20 | 0.007 | > 4.5 | > 50 | 
Cc1cc(COc2ccc(C(=O)NC3CN(C(=O)c4cccnc4)CC34C(=O)NC(=O)NC4=O)cc2)c2ccccc2n1 (stereo not drawn) | > 3.33 | > 6.37 | 0.13 | 17 | 0.029 | > 4.5 | 18.4 | 1.31
C#CCN1CCN(C2(CNC(=O)c3ccc(OCc4cc(C)nc5ccccc45)cc3)C(=O)NC(=O)NC2=O)CC1 | > 3.33 | > 6.37 | > 6.02 | 26 | 0.062 | > 4.5 | > 50 | 
Cc1cc(COc2ccc(C(=O)NCC3(N4CCN(C(=O)C(C)(C)C)CC4)C(=O)NC(=O)NC3=O)cc2)c2ccccc2n1 | 0.02 | > 6.37 | 0.05 | 7 | 0.029 | > 4.5 | 38 | 
Cc1cc(COc2ccc(C(=O)NC3CCCC34C(=O)NC(=O)NC4=O)cc2)c2ccccc2n1 (stereo not drawn) | > 3.33 |  |  | 0 | 0.024 |  | > 50 | 
Cc1cc(COc2ccc(C(=O)NC3CCCCC34C(=O)NC(=O)NC4=O)cc2)c2ccccc2n1 (stereo not drawn) | 0.11 |  |  | 29 | 0.138 |  |  | 
Cc1cc(COc2ccc(C(=O)NCC3(N4CCN(S(C)(=O)=O)CC4)C(=O)NC(=O)NC3=O)cc2)c2ccccc2n1 | 2.17 | > 6.37 | 1.02 | 11 | 0.002 | > 4.5 | > 50 | 
Cc1cc(COc2ccc(CCCC3(C)C(=O)NC(=O)NC3=O)cc2)c2ccccc2n1 |  |  |  |  | > 100 |  |  | 
Cc1cc(COc2ccc(C(=O)NCC3(N4CCN(Cc5ccccc5)CC4)C(=O)NC(=O)NC3=O)cc2)c2ccccc2n1 | 2.7 | > 6.37 | 4.1 | 22 | 0.014 | > 4.5 | > 50 | 
Cc1cc(COc2ccc(C3(C)C(=O)NC(=O)NC3=O)cc2)c2ccccc2n1 |  |  |  |  | 1.03 |  |  | 
Cc1cc(COc2ccc(CCC3(C)C(=O)NC(=O)NC3=O)cc2)c2ccccc2n1 |  |  |  |  | 49 |  |  | 
Cc1cc(COc2ccc(C(=O)NCC3(N4CCN(C(=O)c5cccnc5)CC4)C(=O)NC(=O)NC3=O)cc2)c2ccccc2n1 | > 3.33 | > 6.37 | 4.64 | 36 | 0.01 | > 4.5 | 43 | 
Cc1cc(COc2ccc(C(=O)NC3COCC34C(=O)NC(=O)NC4=O)cc2)c2ccccc2n1 (stereo not drawn) | > 3.33 | > 6.37 | > 4.04 | 12 | 0.044 | > 4.5 | 50 | 3.53
Cc1cc(COc2ccc(C(=O)NCC3(C4CCNCC4)C(=O)NC(=O)NC3=O)cc2)c2ccccc2n1 | > 3.33 | > 6.37 | > 6.02 | 1 | 0.055 | > 4.5 | 48.7 | 
CC(=O)N1CC(NC(=O)c2ccc(OCc3cc(C)nc4ccccc34)cc2)C2(C1)C(=O)NC(=O)NC2=O (stereo not drawn) | > 3.33 | > 6.37 | 0.58 | 44 | 0.055 | > 4.5 | 14 | 3.95
Cc1cc(COc2ccc(CC3(C)C(=O)NC(=O)NC3=O)cc2)c2ccccc2n1 |  |  |  |  | 2.2 |  |  | 
Cc1cc(COc2ccc(C(=O)NCC3(C4CCN(C(C)C)CC4)C(=O)NC(=O)NC3=O)cc2)c2ccccc2n1 | > 3.33 | > 6.37 | > 6.02 | 21 | 0.052 | > 4.5 | > 50 | 
Cc1cc(COc2ccc(C(=O)NCC3(C4CCN(C5CCOCC5)CC4)C(=O)NC(=O)NC3=O)cc2)c2ccccc2n1 | > 3.33 | > 6.37 | > 6.02 | 5 | 0.031 | > 4.5 | > 50 | 
Cc1cc(COc2ccc(C(=O)NC3(C)C(=O)NC(=O)NC3=O)cc2)c2ccccc2n1 |  |  |  |  | > 100 |  |  | 

Structure (SMILES) | Ki [1] [µM] | Ki (Matrilysin) [µM] | Ki [2] [µM] | inhibition (Homo sapiens) [%] | IC50 [3] [µM] | Ki (Stromelysin-1) [µM] | IC50 (Blood) [µM] | Ki (Collagenase 3) [µM]
Cc1cc(COc2ccc(NC(=O)CC3(C)C(=O)NC(=O)NC3=O)cc2)c2ccccc2n1 |  |  |  |  | 12 |  |  | 
Cc1cc(COc2ccc(C(=O)NC3CN(C(=O)OC(C)(C)C)CC34C(=O)NC(=O)NC4=O)cc2)c2ccccc2n1 (stereo not drawn) | > 3.33 | > 6.37 | 1.03 | 44 | 0.128 | > 4.5 | 14 | > 5.21
Cc1cc(COc2ccc(C(=O)NC3CN(S(C)(=O)=O)CC34C(=O)NC(=O)NC4=O)cc2)c2ccccc2n1 (stereo not drawn) | > 3.33 | > 6.37 | 1.29 | 26 | 0.036 | > 4.5 | 12.6 | 3.72
Cc1cc(COc2ccc(CC(=O)NCC3(C)C(=O)NC(=O)NC3=O)cc2)c2ccccc2n1 |  |  |  |  | > 100 |  |  | 
Cc1cc(COc2ccc(C(=O)NCC3(C4CCN(S(C)(=O)=O)CC4)C(=O)NC(=O)NC3=O)cc2)c2ccccc2n1 | > 3.33 | > 6.37 | > 6.02 | 36 | 0.029 | > 4.5 | > 50 | 
Cc1cc(COc2ccc(C(=O)NCC3(NC(=O)OC(C)(C)C)C(=O)NC(=O)NC3=O)cc2)c2ccccc2n1 | > 3.33 | > 6.37 | > 6.02 | 16 | 0.013 | > 4.5 | > 50 | 
CCC1(CNC(=O)c2ccc(OCc3cc(C)nc4ccccc34)cc2)C(=O)NC(=O)NC1=O | 0.2 | > 6.37 | 0.21 | 18 | 0.016 | > 4.5 | > 50 | 
Cc1cc(COc2ccc(/C=C/CC3(C)C(=O)NC(=O)NC3=O)cc2)c2ccccc2n1 |  |  |  |  | 11 |  |  | 
Cc1cc(COc2ccc(C(=O)NCC3(C4CCN(C)CC4)C(=O)NC(=O)NC3=O)cc2)c2ccccc2n1 | > 3.33 | > 6.37 | > 6.02 | 15 | 0.057 | > 4.5 | > 50 | 
CC(=O)N1CCN(C2(CNC(=O)c3ccc(OCc4cc(C)nc5ccccc45)cc3)C(=O)NC(=O)NC2=O)CC1 | > 3.33 | > 6.37 | > 6.02 | 21 | 0.005 | > 4.5 | > 50 | 
Cc1cc(COc2ccc(C(=O)NCC3(Cc4ccccc4)C(=O)NC(=O)NC3=O)cc2)c2ccccc2n1 | 0.37 | > 6.37 | 0.39 | 34 | 0.018 | 3.69 | > 50 | 
Cc1cc(COc2ccc(C(=O)NCC3(N4CCN(C)CC4)C(=O)NC(=O)NC3=O)cc2)c2ccccc2n1 | > 3.33 | > 6.37 | > 6.02 | 21 | 0.058 | > 4.5 | > 50 | 
Cc1cc(COc2ccc(C(=O)CCC3(C)C(=O)NC(=O)NC3=O)cc2)c2ccccc2n1 |  |  |  |  | 0.8 |  |  | 
Cc1cc(COc2ccc(C(=O)NC(c3ccncc3)C3(C)C(=O)NC(=O)NC3=O)cc2)c2ccccc2n1 (stereo not drawn) |  |  |  |  | 2.36 |  |  | 
Cc1cc(COc2ccc(C(=O)NCC3(C4CCN(C(=O)OC(C)(C)C)CC4)C(=O)NC(=O)NC3=O)cc2)c2ccccc2n1 | > 3.33 | > 6.37 | > 6.02 | 0 | 0.047 | > 4.5 | 35 | 
Cc1cc(COc2ccc(C(=O)NCC3(C(C)C)C(=O)NC(=O)NC3=O)cc2)c2ccccc2n1 | 0.93 | > 6.37 | > 6.02 | 11 | 0.019 | > 4.5 | > 50 | 
Cc1cc(COc2ccc(C(=O)NC3CN(C(=O)C(C)(C)C)CC34C(=O)NC(=O)NC4=O)cc2)c2ccccc2n1 (stereo not drawn) | > 3.33 | > 6.37 | > 6.02 | 53 | 0.111 | > 4.5 | > 50 | 
Cc1cc(COc2ccc(C(=O)NCC3(C4CCN(C(=O)C(C)(C)C)CC4)C(=O)NC(=O)NC3=O)cc2)c2ccccc2n1 | > 3.33 | > 6.37 | > 6.02 | 10 | 0.013 | > 4.5 | 39 | 
Cc1cc(COc2ccc(OC3(C)C(=O)NC(=O)NC3=O)cc2)c2ccccc2n1 |  |  |  |  | 1.3 |  |  | 
